As usually defined, the Papp A→B is the apparent permeability from the apical to the basolateral side of a cell layer.

This note sets out measurements from article PMC6877959, “β-Lactoglobulin Heptapeptide Reduces Oxidative Stress in Intestinal Epithelial Cells and Angiotensin II-Induced Vasoconstriction on Mouse Mesenteric Arteries by Induction of Nuclear Factor Erythroid 2-Related Factor 2 (Nrf2) Translocation” (Oxidative Medicine and Cellular Longevity, 2019).

Ends that are not written are not given here.

Data set [1] relates to Caco-2 cell monolayer. Nature of the data set: Immunofluorescence of Caco-2 monolayers after transport (zonulin-1, integrity). Type of data set: cell-based. The settings on record: after transport studies, all the concentrations tested. As for the experimental part:
The transwell membranes from TEER experiments were washed with PBS and fixed with 4% paraformaldehyde (PFA) for 15 min. Membranes were then washed in PBS and blocked with blocking solution (0.1% Triton, 1% BSA, 0.02% sodium azide, and 50 mM ammonium chloride) for 20 min at room temperature in the dark. Afterwards, they were incubated with an anti-zonulin 1 antibody (#402200, Invitrogen, Thermo Fisher Scientific, Waltham, MA, USA) at the final concentration of 2 μg mL^−1 at room temperature for 2 hours. Immunofluorescence staining was obtained by incubating the membranes for 90 min with Alexa Fluor 488 donkey anti-rabbit IgG (#A31573) at the final concentration of 4 μg mL^−1 (Invitrogen). The nuclei were counterstained with DAPI (1 : 2000). Membranes were cut down with an operating knife blade along the margin of the chamber and were mounted on slides using VectaMount solution (AQ Vector Laboratories, Burlingame, CA, USA). Slides were examined under a Nikon fluorescence inverted microscope (Nikon Instruments Europe, Firenze, Italy) and then analyzed through ImageJ software as previously described.
Figure S3: Fluorescence micrograph of the Caco-2 cell monolayers. Caco-2 cell monolayers treated with BRP2 (50 µM, 2 h) from TEER experiments were stained for tight junction protein expression of zonulin-1 (FITC, green). Nuclei were counterstained with DAPI (blue). […]

Data set [2] deals with Caco-2 cell monolayer. Nature of the data set: Caco-2 cell monolayer permeation (transepithelial transport). The settings on record: UHPLC-MS/MS. Type of data set: in vitro ADME. On the procedure:
(§1) The colorectal adenocarcinoma (Caco-2) cell line was purchased from ATCC (Rockville, MD, USA). Cells were maintained in high-glucose DMEM (4.5 g/L) supplemented with 2 mM L-glutamine and 10% (v/v) heat-inactivated foetal bovine serum. Cells were cultured at 37°C in a humidified 5% CO2 atmosphere. To induce enterocytic Caco-2 differentiation, cells were seeded in a 12-well multiwell in transwell inserts (PET membrane, 0.4 μm pore size, 1.12 cm^2 surface area) at 2.6 × 10^5 cells/cm^2 and maintained for 21 days in complete medium. The medium was changed every second day. By 21 days, the monolayers become completely differentiated.
(§2) The integrity of the monolayers was evaluated by measurement of the transepithelial electrical resistance (TEER) using an EVOM2 epithelial voltohmmeter (World Precision Instruments, Sarasota, FL, USA). Only monolayers showing TEER higher than 300 Ω × cm^2 were then used for transport experiments. The integrity of the monolayers was checked before, during, and after the experiment. The filters were washed for 15-20 min at 37°C adding prewarmed Hank's balanced salt solution buffered with 25 mM HEPES and NaHCO3 (0.35 g/L) at pH 7.4 to the apical (0.4 mL) and to the basolateral (1.2 mL) transwell compartments, as previously described. For transport experiments, donor solution containing BRP2 peptide at the desired concentration (100-1 μM) was added to the apical compartment for the apical to basolateral (absorptive) direction. Samples from the receiving compartment were collected at different time points up to 120 min (15, 30, 60, 90, and 120 min). Samples from the donor compartment were collected at time 0 and at the end of the experiment (120 min) for the calculation of the mass balance.
(§3) Samples were stored at −20°C until UHPLC-MS/MS analyses to measure the concentration of BRP2 in both compartments (for detailed conditions, see Supporting Information ).
(§4) The apparent permeability coefficient (Papp) was calculated as described according to (1) Papp=dMR^t/dt×1/A×CD0, where MR is the amount of substance in the receiver chamber, A (cm^2) is the surface area of the barrier, and CD0 (μM) is the initial donor concentration. The reduction in donor concentration was also taken after every sampling (see Supporting Information ).
(§5) Instead, for the quantification of BRP2 in donor and receiver chamber, the stock solution was diluted with fresh HBSS to a series of concentrations ranged of 125-0.5 nM to establish the calibration curve (y = 0.000001x – 0,000363; R^2 ≥ 0.9997).
(§6) The apparent permeability values of BRP2 were calculated according to the Eq. 1. This calculation requires that the sink conditions are fulfilled, that is, the ratio CR/CD is less than 0.1 at each sampling point used in the analysis. […] The donor concentration was recalculated by subtracting the cumulative amount transported to the receiver chamber for each time interval:
(§7) CD (ti) and CR (ti) (μM): donor and receiver chamber concentrations calculated at each sample occasion (i) from the donor and receiver concentrations at the previous occasion CD (ti–1) and CR (ti–1), respectively; f=1–VS/VR: sample replacement diluition factor; VS (cm^3): sample volume; VR (cm^3): receiver chamber volume; VD (cm^3): donor chamber volume. ^[28]
(§8) recovery (%) = (CD(fin) × VD +∑ (CS(t) × VS(t)) + CR(fin) × VR(fin)) × 100 / (CD(0) × VD(0)) […]
(Passage across Caco-2 layers is used to estimate intestinal permeability.)

Assay in data set [3]: as above
Type of data set: in vitro ADME. The settings on record: human, Caco-2, 21-day, transwell, apical to basolateral, HBSS 25 mM HEPES pH 7.4, 37°C, time point 120 min, UHPLC-MS/MS, means ± S.D. On the procedure: as §1, §2, §3, §4, §5, §6, §7, §8

Take “SFNPTQL [BRP2, Ser-Phe-Asn-Pro-Thr-Gln-Leu]”: the “Caco-2 cell monolayer integrity (zonulin-1 expression)” value in data set [1] is reported as “preserved”. The Papp in data set [2] (BRP2 10 μM, Caco-2, 21-day, transwell, apical to basolateral, HBSS 25 mM HEPES pH 7.4, 37°C, time point 120 min, means ± S.D.) is 0.53 ± 0.01 10^-6 cm/s. Also, the “mass balance (recovery)” value in data set [2] (Caco-2 transport, donor sampled at 0 and 120 min) is listed as “more than 80%”. The same substance gave a Papp A→B at 120 min, 1 μM in data set [3] (BRP2 1 μM) of 0.53 ± 0.15 ×10⁻⁶ cm/s. Besides, the Papp A→B at 120 min, 50 μM in data set [3] (BRP2 50 μM) is 0.2 ± 0.05 ×10⁻⁶ cm/s. This substance registered a Papp A→B at 120 min, 100 μM in data set [3] (BRP2 100 μM) of 0.27 ± 0.07 ×10⁻⁶ cm/s.
